Assay results published in patent US11224223B2, “Feeding deterrence of pests such as Hemiptera, Lepidoptera and Coleoptera” (BEDOUKIAN RESEARCH, INC., priority 2012, dated 2022).

Tests used:
Type in all cases: in vivo
psyllids = test: Psyllid repellency on potato choice assays; details: 3% compound; potato plants; 100 psyllids per cage; control 50/50
Source text: Psyllid Repellency on Potato Choice Assays
(§1) Potato plants are sprayed with either a 3% solution of repellent chemical in a 5%:95% ETOH:Water or only 5%:95% ETOH:Water as a control. Two plants are placed in a screen cage, either a treatment vs control tree or a control vs control tree, 100 psyllids are released into each cage. The number of psyllids choosing each leaf is counted for both choice tests. The number of psyllids choosing each treatment is compared to the control to determine if there is a repellent effect.

sharpshooters = test: Leafhopper repellency on citrus choice assays; details: 3% compound; citrus seedlings; 100 sharpshooters per cage; control 50/50
Source text: as §1, with “Leafhopper Repellency on Citrus Choice Assays Citrus seedlings” for “Potato plants”, “seedlings” for “plants”, “tree.” for “tree,”, “sharpshooters” for “psyllids”

Tineola spp. = test: Clothes moth feeding damage on silk fabric, choice test; details: 3% compound; silk disks; late instar larvae; 24 hours; control 50/50
Description: For feeding assays, 3% alcohol solutions of the tested compounds are prepared. Disks (2.0 cm in diameter) of undyed silk fabric are dipped in the test solutions or alcohol alone as a control. After the complete evaporation of the solvent, the disks are presented in a choice test to 10 late instar Tineola spp. larvae. All dishes are placed in an incubator in the dark. Four replicates are used for each chemical. After 24 hours, the number of individuals choosing to feed on each disk are counted.

Sitostroga cerealella = test: Feeding repellent assay for Angoumois larva on treated rice; details: 10% compound in a 5% Ethanol:95% water solution, third instar larvae, 1 week
Description: Feeding Repellent Assay for Angoumois Larva
One gram of rice is weighed and treated with 2% by weight of each test chemical or ethanol as a control for each treatment and replicate. The grains are allowed to dry and then weighed again. Treated or control rice grains are placed in a petri dish. Third instar larvae are starved for 8 h and gently introduced into the center of each compartment. 20 larva are screened per treatment, and each experiment is repeated three times. The weight of rice grains is measured again after 1 week. The selective antifeeding rate (%) formula is [(C−T)/(C+T)]×100, and the non-selective antifeeding rate (%) formula is [(C−T)/C)]×100, where C and T are the areas consumed by the control and treated leaf disks, respectively.

[1] = tested on: brown marmorated stink bugs (BMSB); test: Repellency as feeding deterrence in brown marmorated stink bugs, treated filter paper with green bean; details: compound at 3.5% in a 57% Ethanol:43% water solution; control 38%
Description: A test was designed to measure the repellency as feeding deterrence in brown marmorated stink bugs (BMSB). Five replicates of 5 BMSBs were introduced into test arenas, containing one 60 mm×15 mm Petri dish with treated filter papers in which a food source (green bean) was attached, at the start of the test. The small Petri dishes containing the treated filter paper and food source were covered with a fitted Petri dish lid in between observation times, and were removed 5 minutes before each observation time to prevent stink bugs from feeding until sated. The distribution of the BMSBs was observed and documented hourly for 5 hours.

Row | SMILES | Number of Psyllids Choosing each Treatment: Treated (psyllids) | Number of Psyllids Choosing each Treatment: Untreated (psyllids) | Number of Psyllids Choosing each Treatment: Treated (sharpshooters) | Number of Psyllids Choosing each Treatment: Untreated (sharpshooters) | Individuals choosing to feed on each disk: Treated (Tineola spp.) | Individuals choosing to feed on each disk: Untreated (Tineola spp.) | % Antifeedent Activity (Sitostroga cerealella) | Repellency averaged over 5 hours [1]
1 | CC/C(C)=C/CC/C(C)=C/CC1CCCC1=O (stereo not drawn) [Methyl Apritone] | 30 | 70 | 30 | 70 | 20 | 80 | 70% | 
2 | CCCCCC1C(=O)CCC1CC(=O)OCCC (stereo not drawn) [Propyl Dihydrojasmonate] | 30 | 70 | 30 | 70 | 20 | 80 | 60% | 100%
